Publication PMC6561244 (Proceedings of the National Academy of Sciences of the …, 2019)

Target: T1, CKL4 (Arabidopsis thaliana, UniProt Q8LPI7)
T1 sequence (Q8LPI7 1-414): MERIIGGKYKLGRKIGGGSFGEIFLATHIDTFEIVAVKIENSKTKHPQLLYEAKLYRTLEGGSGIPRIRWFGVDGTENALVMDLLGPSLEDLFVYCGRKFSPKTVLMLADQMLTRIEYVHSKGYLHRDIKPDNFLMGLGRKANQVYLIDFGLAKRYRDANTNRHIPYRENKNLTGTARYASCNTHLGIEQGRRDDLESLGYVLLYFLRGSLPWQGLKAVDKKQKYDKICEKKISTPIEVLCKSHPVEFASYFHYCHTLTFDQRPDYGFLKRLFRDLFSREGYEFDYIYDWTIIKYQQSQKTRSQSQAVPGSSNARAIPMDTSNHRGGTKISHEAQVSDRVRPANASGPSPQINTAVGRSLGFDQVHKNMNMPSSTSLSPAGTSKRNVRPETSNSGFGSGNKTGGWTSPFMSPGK
Assay: in vitro kinase assay with isotope-labeled ATP
Type: biochemical

- IC50: ~5 µM
SMILES: O=C1NCCc2[nH]c(-c3ccncc3)cc21 [PHA767491]
